# Assay results published in ChEMBL document CHEMBL1201862, “PubChem BioAssay data set” (2004).
#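 Grown in 96-well plates, cells were treated for 48 hours with each compound at five concentrations. Insufficient inhibition: endpoint recorded as highest concentration tested. Abbreviation: GI50, concentration required for 50% inhibition of growth.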 Activity calls are given as the source filed them. Rule as the data show it: active = GI50 up to about 1.1 µM and inactive = higher.
# Key:
# Assay in all cases: growth of human tumour cells (NCI), 48 h
# 786-0 = system: 786-0
# A498 = system: A498
# A549 = system: A549
# ACHN = system: ACHN
# BT-549 = system: BT-549
# CAKI-1 = system: CAKI-1
# CCRF-CEM = system: CCRF-CEM
# COLO 205 = system: COLO 205
# DU-145 = system: DU-145
# EKVX = system: EKVX
# HCC 2998 = system: HCC 2998
# HCT-116 = system: HCT-116
# HCT-15 = system: HCT-15
# HL-60 = system: HL-60
# HOP-62 = system: HOP-62
# HOP-92 = system: HOP-92
# HT-29 = system: HT-29
# Hs-578T = system: Hs-578T
# IGROV-1 = system: IGROV-1
# K562 = system: K562
# KM12 = system: KM12
# M14 = system: M14
# MCF7 = system: MCF7
# MDA-MB-231 = system: MDA-MB-231
# MDA-MB-435 = system: MDA-MB-435
# MDA-N = system: MDA-N
# MOLT-4 = system: MOLT-4
# Malme-3M = system: Malme-3M
# NCI-H23 = system: NCI-H23
# NCI-H522 = system: NCI-H522
# NCI/ADR-RES = system: NCI/ADR-RES
# OVCAR-3 = system: OVCAR-3
# OVCAR-4 = system: OVCAR-4
# OVCAR-8 = system: OVCAR-8
# PC-3 = system: PC-3
# RPMI-8226 = system: RPMI-8226
# RXF 393 = system: RXF 393
# SF-268 = system: SF-268
# SF-295 = system: SF-295
# SF-539 = system: SF-539
# SK-MEL-28 = system: SK-MEL-28
# SK-MEL-5 = system: SK-MEL-5
# SK-OV-3 = system: SK-OV-3
# SN12C = system: SN12C
# SNB-19 = system: SNB-19
# SNB-75 = system: SNB-75
# SR = system: SR
# SW-620 = system: SW-620
# T47D = system: T47D
# TK-10 = system: TK-10
# U-251 = system: U-251
# UACC-257 = system: UACC-257
# UACC-62 = system: UACC-62
# LOX IMVI = system: LOX IMVI
# NCI-H226 = system: NCI-H226
# NCI-H460 = system: NCI-H460
# OVCAR-5 = system: OVCAR-5
# SK-MEL-2 = system: SK-MEL-2
# UO-31 = system: UO-31
smiles,measurement,setting,value
CC(C)C1CNC(=O)C2(/C=N/C(C(C)C)CNC(=O)C3(/C=N/1)CCCO3)CCCO2 (stereo not given),GI50,786-0,> 10 µM (inactive)
same,GI50,A498,> 10 µM (inactive)
same,GI50,A549,> 10 µM (inactive)
same,GI50,ACHN,> 10 µM (inactive)
same,GI50,BT-549,> 10 µM (inactive)
same,GI50,CAKI-1,> 10 µM (inactive)
same,GI50,CCRF-CEM,> 10 µM (inactive)
same,GI50,COLO 205,> 10 µM (inactive)
same,GI50,DU-145,> 10 µM (inactive)
same,GI50,EKVX,> 10 µM (inactive)
same,GI50,HCC 2998,> 10 µM (inactive)
same,GI50,HCT-116,> 10 µM (inactive)
same,GI50,HCT-15,> 10 µM
same,GI50,HL-60,> 10 µM (inactive)
same,GI50,HOP-62,> 10 µM (inactive)
same,GI50,HOP-92,> 10 µM (inactive)
same,GI50,HT-29,> 10 µM (inactive)
same,GI50,Hs-578T,> 10 µM (inactive)
same,GI50,IGROV-1,> 10 µM (inactive)
same,GI50,K562,> 10 µM (inactive)
same,GI50,KM12,> 10 µM (inactive)
same,GI50,M14,> 10 µM (inactive)
same,GI50,MCF7,> 10 µM (inactive)
same,GI50,MDA-MB-231,> 10 µM (inactive)
same,GI50,MDA-MB-435,> 10 µM (inactive)
same,GI50,MDA-N,> 10 µM (inactive)
same,GI50,MOLT-4,> 10 µM (inactive)
same,GI50,Malme-3M,> 10 µM (inactive)
same,GI50,NCI-H23,> 10 µM (inactive)
same,GI50,NCI-H522,> 10 µM (inactive)
same,GI50,NCI/ADR-RES,> 10 µM (inactive)
same,GI50,OVCAR-3,> 10 µM (inactive)
same,GI50,OVCAR-4,> 10 µM (inactive)
same,GI50,OVCAR-8,> 10 µM (inactive)
same,GI50,PC-3,> 10 µM (inactive)
same,GI50,RPMI-8226,> 10 µM (inactive)
same,GI50,RXF 393,> 10 µM (inactive)
same,GI50,SF-268,> 10 µM (inactive)
same,GI50,SF-295,> 10 µM (inactive)
same,GI50,SF-539,> 10 µM (inactive)
same,GI50,SK-MEL-28,> 10 µM (inactive)
same,GI50,SK-MEL-5,> 10 µM (inactive)
same,GI50,SK-OV-3,> 10 µM (inactive)
same,GI50,SN12C,> 10 µM (inactive)
same,GI50,SNB-19,> 10 µM (inactive)
same,GI50,SNB-75,> 10 µM (inactive)
same,GI50,SR,> 10 µM (inactive)
same,GI50,SW-620,> 10 µM (inactive)
same,GI50,T47D,> 10 µM (inactive)
same,GI50,TK-10,> 10 µM (inactive)
same,GI50,U-251,> 10 µM (inactive)
same,GI50,UACC-257,> 10 µM (inactive)
same,GI50,UACC-62,> 10 µM (inactive)
O=C(/C=C/c1ccc(/C=C/C(=O)c2ccc(O)cc2)cc1)c1ccc(O)cc1,GI50,786-0,74 µM (inactive)
same,GI50,A498,> 100 µM (inactive)
same,GI50,A549,> 100 µM (inactive)
same,GI50,ACHN,> 100 µM (inactive)
same,GI50,BT-549,> 100 µM (inactive)
same,GI50,CAKI-1,> 100 µM (inactive)
same,GI50,CCRF-CEM,> 100 µM (inactive)
same,GI50,COLO 205,> 100 µM (inactive)
same,GI50,DU-145,> 100 µM (inactive)
same,GI50,EKVX,> 100 µM (inactive)
same,GI50,HCC 2998,> 100 µM (inactive)
same,GI50,HCT-116,> 100 µM (inactive)
same,GI50,HCT-15,> 100 µM
same,GI50,HL-60,> 100 µM (inactive)
same,GI50,HOP-62,> 100 µM (inactive)
same,GI50,HOP-92,> 100 µM (inactive)
same,GI50,HT-29,58.1 µM (inactive)
same,GI50,Hs-578T,> 100 µM (inactive)
same,GI50,IGROV-1,> 10 µM (inactive)
same,GI50,K562,> 100 µM (inactive)
same,GI50,KM12,> 100 µM (inactive)
same,GI50,LOX IMVI,33.8 µM (inactive)
same,GI50,M14,> 100 µM (inactive)
same,GI50,MCF7,> 100 µM (inactive)
same,GI50,MDA-MB-231,> 100 µM (inactive)
same,GI50,MDA-MB-435,> 100 µM (inactive)
same,GI50,MDA-N,> 100 µM (inactive)
same,GI50,MOLT-4,> 100 µM (inactive)
same,GI50,NCI-H226,> 100 µM (inactive)
same,GI50,NCI-H23,> 100 µM (inactive)
same,GI50,NCI-H460,> 100 µM (inactive)
same,GI50,NCI-H522,> 10 µM (inactive)
same,GI50,NCI/ADR-RES,> 100 µM (inactive)
same,GI50,OVCAR-3,> 100 µM (inactive)
same,GI50,OVCAR-5,> 100 µM (inactive)
same,GI50,OVCAR-8,> 100 µM (inactive)
same,GI50,PC-3,> 100 µM (inactive)
same,GI50,RPMI-8226,> 100 µM (inactive)
same,GI50,RXF 393,> 100 µM (inactive)
same,GI50,SF-268,> 100 µM (inactive)
same,GI50,SF-295,> 100 µM (inactive)
same,GI50,SF-539,> 100 µM (inactive)
same,GI50,SK-MEL-28,> 100 µM (inactive)
same,GI50,SK-MEL-2,> 100 µM (inactive)
same,GI50,SK-MEL-5,> 100 µM (inactive)
same,GI50,SN12C,> 100 µM (inactive)
same,GI50,SNB-19,> 100 µM (inactive)
same,GI50,SNB-75,> 100 µM (inactive)
same,GI50,SR,> 100 µM (inactive)
same,GI50,SW-620,> 100 µM (inactive)
same,GI50,T47D,> 100 µM (inactive)
same,GI50,TK-10,> 100 µM (inactive)
same,GI50,U-251,16.4 µM (inactive)
same,GI50,UACC-257,> 100 µM (inactive)
same,GI50,UACC-62,> 100 µM (inactive)
same,GI50,UO-31,> 100 µM (inactive)
CCOC(=O)/C=C/[C@H](O[Si](CC)(CC)CC)C(C)(C)C,GI50,786-0,80.5 µM (inactive)
same,GI50,A498,> 100 µM (inactive)
same,GI50,A549,35 µM (inactive)
same,GI50,ACHN,28.7 µM (inactive)
same,GI50,BT-549,> 100 µM (inactive)
same,GI50,CAKI-1,> 100 µM (inactive)
same,GI50,CCRF-CEM,22.4 µM (inactive)
same,GI50,COLO 205,80.5 µM (inactive)
same,GI50,DU-145,> 100 µM (inactive)
same,GI50,EKVX,40.5 µM (inactive)
same,GI50,HCC 2998,57.3 µM (inactive)
same,GI50,HCT-116,51.2 µM (inactive)
same,GI50,HCT-15,41.5 µM
same,GI50,HOP-62,83.6 µM (inactive)
same,GI50,HOP-92,> 100 µM (inactive)
same,GI50,HT-29,34.1 µM (inactive)
same,GI50,Hs-578T,> 100 µM (inactive)
same,GI50,IGROV-1,> 100 µM (inactive)
same,GI50,K562,65.8 µM (inactive)
same,GI50,KM12,> 100 µM (inactive)
same,GI50,LOX IMVI,21.5 µM (inactive)
same,GI50,MCF7,25.8 µM (inactive)
same,GI50,MDA-MB-231,80.4 µM (inactive)
same,GI50,MDA-MB-435,59 µM (inactive)
same,GI50,MDA-N,78.2 µM (inactive)
same,GI50,MOLT-4,77.1 µM (inactive)
same,GI50,Malme-3M,> 100 µM (inactive)
same,GI50,NCI-H226,> 100 µM (inactive)
same,GI50,NCI-H23,> 100 µM (inactive)
same,GI50,NCI-H460,> 100 µM (inactive)
same,GI50,NCI-H522,29.1 µM (inactive)
same,GI50,NCI/ADR-RES,> 100 µM (inactive)
same,GI50,OVCAR-3,52.7 µM (inactive)
same,GI50,OVCAR-4,48.1 µM (inactive)
same,GI50,OVCAR-5,89.9 µM (inactive)
same,GI50,OVCAR-8,> 100 µM (inactive)
same,GI50,PC-3,78.3 µM (inactive)
same,GI50,RPMI-8226,20.6 µM (inactive)
same,GI50,RXF 393,47.1 µM (inactive)
same,GI50,SF-268,> 100 µM (inactive)
same,GI50,SF-295,42.4 µM (inactive)
same,GI50,SF-539,> 100 µM (inactive)
same,GI50,SK-MEL-2,23.2 µM (inactive)
same,GI50,SK-MEL-5,45.3 µM (inactive)
same,GI50,SK-OV-3,> 100 µM (inactive)
same,GI50,SN12C,39 µM (inactive)
same,GI50,SNB-19,36.3 µM (inactive)
same,GI50,SNB-75,> 100 µM (inactive)
same,GI50,SR,22.7 µM (inactive)
same,GI50,SW-620,40.7 µM (inactive)
same,GI50,T47D,67.1 µM (inactive)
same,GI50,TK-10,> 100 µM (inactive)
same,GI50,U-251,27.4 µM (inactive)
same,GI50,UACC-257,31 µM (inactive)
same,GI50,UACC-62,90.2 µM (inactive)
same,GI50,UO-31,> 100 µM (inactive)
